In data set [1] the target is T1, p300 (CH1) / HIF-1α (C-TAD) interaction (Homo sapiens, UniProt Q09472+Q16665).
T1 construct: GST-p300-CH1 (aa 323-423); synthetic biotinylated HIF-1αC-TAD (aa 786-826; Peptide Protein Research Ltd., Fareham, UK)
The data set can be described thus: p300 CH1 / HIF-1α C-TAD binding assay (DELFIA, europium anti-GST). As to conditions: for IC50: dose-response format of the screening assay. The procedure:
Binding of soluble CH1 to the immobilized C-TAD was measured by the fluorescence of a europium-tagged anti-GST antibody.
Bound GST-CH1 was detected using a europium-labeled antibody to GST (PerkinElmer Life Sciences). […] Plates were washed four times with TBST (50 mM Tris, 150 mM NaCl, 0.05% Tween 20, pH 8.0) buffer. […] After 2 h, plates were washed four times in TBST. DELFIA enhancement solution (PerkinElmer Life Sciences) was added and plates were placed on a rocker for 30 min, before reading with a Victor3 plate reader (PerkinElmer Life Sciences) or a Pherastar Plate Reader (BMG Labtech), using the europium setting under time-resolved fluorescence. Values were corrected for background and expressed as a percentage of controls (DMSO) to provide the percentage of CH1 binding.

Data set [2] has as its system NCI-60 cell line. Kind of data set: NCI-60 cell line anticancer screen. The format is cell-based. As to conditions: standard initial concentration of 40 μM.
Data set [3] has as its system 32 bromodomain proteins. The data set can be described thus: commercial panel of 32 bromodomain proteins (DiscoverRx). It is filed as binding. From the text:
(§1) In an effort to evaluate a broader range of potential activities of interest, compound 1 was screened against a commercial panel of 456 protein kinase enzymes and 32 bromodomain proteins (DiscoverRx, San Diego, Calif.), and it had no activity against any of these targets.

Data set [4] relates to HIF-1α activation in HCT116 cells. The data set can be described thus: HRE luciferase reporter of HIF-1α activation in HCT116 cells under anoxic conditions. As to conditions: FIG. 7. The format is cell-based. The procedure: Activation was monitored via a hypoxia response element (HRE) luciferase signal. When HIF-1α is activated, it results in an increased HRE luciferase signal. […] Data were analyzed using an ordinary one-way ANOVA with Dunnett's multiple comparisons test (reference group: DMSO.H). * P≤0.05, ** P≤0.01, *** P≤0.0001.
A general note: Reporter assays use an easily measured gene product as a stand-in for the process of interest.

Data set [5] can be described thus: pKa determination by UV-Vis analysis at varied pH. The format is physicochemical. The settings on record: aqueous buffers at varied pH, 0.1% DMSO, read-out: pKa of the titratable proton. The method, then:
The cuvettes were allowed to equilibrate for 1 h before a UV-Vis curve was obtained. The pKa for 1 was determined by fitting Δ abs at 394 and 440 nm to a polynomial curve, as described previously (Yapici et al., J. Am. Chem. Soc. 2015, 137:1073-1080).

The subject of data set [6] is P. falciparum D6 (chloroquine sensitive). Kind of data set: Antimalarial activity, plasmodial LDH assay, D6 strain. It is filed as cell-based. As to conditions: for IC50: Plasmodium falciparum, read-out: IC50 against D6. The procedure:
(§2) The antimalarial activity was determined against chloroquine sensitive (D6) and chloroquine resistant (W2) strains of P. falciparum by measuring plasmodial LDH (lactate dehydrogenase) activity according to the procedure of Makler and Hinrichs (Am. J. Trop. Med. Hyg. 1993, 48:205). A suspension of red blood cells infected with D6 or W2 strain of P. falciparum (200 μL, with 2% parasitemia and 2% hematocrit in RPMI 1640 medium supplemented with 10% human serum and 60 μg/mL Amikacin) was added to the wells of a 96-well plate containing 10 μL of serially diluted samples (plant extracts, column fractions or pure compounds). The plate was incubated at 37° C., for 72 h in a modular incubation chamber with 90% N2, 5% O2, and 5% CO2. Parasitic LDH activity was determined by mixing 20 μL of the incubation mixture with 100 μL of the Malstat reagent and incubating at room temperature for 30 min Twenty microliters of a 1:1 mixture of NBT/PES (nitro blue tetrazolium/phenazine ethosulfate) (Sigma, St. Louis, Mo.) was then added and the plate was further incubated in the dark for 1 h. The reaction was stopped by adding 100 μL of a 5% acetic acid solution and the absorbance was read at 650 nm. Artemisinin and chloroquine were included as the drug controls. IC50 values were computed from the dose response curves of growth inhibition.

For data set [7], the system named is 456 protein kinase enzymes. Kind of data set: commercial panel of 456 protein kinase enzymes (DiscoverRx). The format is binding.
Source text: as §1

In data set [8] the test system is P. falciparum W2 (chloroquine resistant). Kind of data set: Antimalarial activity, plasmodial LDH assay, W2 strain. It is filed as cell-based. As to conditions: for IC50: Plasmodium falciparum, read-out: IC50 against W2. The method, then: as §2
For data set [9], the system named is HCT116 cells. The data set can be described thus: CCK-8 cytotoxicity in HCT116 cells under hypoxic conditions. The settings on record: 18 h treatment, hypoxic conditions (0.5% O2), FIG. 8. The format is cell-based. From the text:
Results are presented as the average cell viability number (% hypoxic control) of triplicate experiments ±S.E.M. (n=3-4).

Data set [10] is described as follows: Stability in NMR solvent. It is filed as physicochemical.
Where [11] appears, read: read-out: IC50, blocking binding of soluble CH1 to immobilized C-TAD.

Converted amounts (≈) assume the structure as drawn. “And” between values parts separate entries of the source, which are not always exact repeats. Equal entries are not always repeated. Where two headings read alike, the source gives them in different places.

T1 sequence (Q09472 323-423): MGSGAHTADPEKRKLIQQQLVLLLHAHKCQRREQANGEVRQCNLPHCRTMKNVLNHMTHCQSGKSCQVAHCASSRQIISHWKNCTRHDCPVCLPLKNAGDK
T1 sequence (Q16665 786-826): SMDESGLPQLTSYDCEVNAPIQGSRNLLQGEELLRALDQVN

`OC1(c2ccccc2)N=C2N=CC=C3c4ccccc4N=C1N32` (stereo not drawn) [EA-1]: the “inhibition of CH1 (p300)/C-TAD (HIF-1α) interaction” value in data set [1] (even at high dose) was “no inhibition”.

As for `O=C(O)c1ccc(C2(O)N=C3N=CC=C4c5ccccc5N=C2N43)cc1` (stereo not drawn) [EA-2], in data set [1] (read-out: IC50, CH1 (p300)/C-TAD (HIF-1α) interaction (converted)), the IC50 was ~290 µM.

In the case of `COc1ccc(C2(O)N=C3N=CC=C4c5ccccc5N=C2N43)cc1` (stereo not drawn) [Eudistidine A, eudistidine A], the “cytotoxic activity in NCI-60 screen” value in data set [2] is listed as “no significant cytotoxic activity”. Besides, the “activity against 32 bromodomain proteins” value in [3] was “no activity”. The “blocking of HIF-1α activation (HRE luciferase signal)” value in [4] is “block HIF-1α activation”. In addition, in data set [5], the pKa is 5.1 ± 0.1. For the same molecule, the “% growth of D6 strain of P. falciparum” value is reported as 72% in [6] (528.89 ng/mL), 6% in [6] (1586.67 ng/mL) and 2% in data set [6] (4760 ng/mL). Further, the IC50 in data set [6] (D6, growth inhibition, 72 h) was 0.77 µg/mL (≈ 2.33 µM); in data set [1] (setting [11]), ~75 µM and 75 µM; in data set [8] (W2, growth inhibition, 72 h), 0.58 µg/mL (≈ 1.76 µM). Further, the “activity against 456 protein kinase enzymes” value in [7] is “no activity”. In addition, the “inhibition of HIF-1α binding to p300, comparison of salt forms and natural/synthetic material” value in data set [1] (FIGS. 5A-5E, 6A-6C, listed as natural eudistidine A, free base) is given as “similarly inhibit”. The figures for the “% growth of W2 strain of P. falciparum” value in data set [8] (528.89 ng/mL), in data set [8] (1586.67 ng/mL) and in data set [8] (4760 ng/mL) were 55%, 1% and 1%, respectively. Besides, the “CCK-8 cytotoxicity/growth inhibitory activity” value in [9] is reported as “only modest cytotoxicity/growth inhibitory activity”.

On to `O=c1nc2nccc3c4ccccc4nc1N23` [Eudistidine B, eudistidine B], for which the “inhibition of CH1 (p300)/C-TAD (HIF-1α) interaction” value in data set [1] (at a high dose of 250 μM) is listed as “no inhibition”.

Regarding `COc1ccc(C2(c3nc(N)[nH]c3-c3ccc(O)cc3)N=C3N=CC=C4c5ccccc5N=C2N43)cc1` (stereo not drawn) [Eudistidine C, eudistidine C], the “% growth of D6 strain of P. falciparum” value in [6] (528.89 ng/mL) turned out to be 91%; in [6] (1586.67 ng/mL), 56%; in data set [6] (4760 ng/mL), 9%. For the same molecule, the IC50 in data set [6] (D6, growth inhibition, 72 h) is 1.7 µg/mL (≈ 3.49 µM); in [1] (setting [11]) it was ~75 µM; in data set [8] (W2, growth inhibition, 72 h), 0.9 µg/mL (≈ 1.85 µM). The “% growth of W2 strain of P. falciparum” value is listed as 75% in [8] (528.89 ng/mL), 22% in data set [8] (1586.67 ng/mL) and 6% in data set [8] (4760 ng/mL). For the same molecule, in [10], the “stability in DMSO-d6” value is “somewhat unstable”.

Turning to `C[C@@H]1CC[C@H]2[C@@H](C)C(=O)O[C@@H]3O[C@@]4(C)CC[C@@H]1[C@]32OO4` [artemisinin, reference compound], the IC50 came out at 0.0072 µg/mL (≈ 0.0255 µM) in data set [6] (D6, growth inhibition, 72 h) and 0.0041 µg/mL (≈ 0.0145 µM) in data set [8] (W2, growth inhibition, 72 h).

For the molecule `CCN(CC)CCCC(C)Nc1ccnc2cc(Cl)ccc12` (stereo not drawn) [chloroquine, reference compound], the IC50 was determined as 0.0154 µg/mL (≈ 0.0481 µM) in data set [6] (D6, 72 h) and 0.161 µg/mL (≈ 0.503 µM) in data set [8] (W2, 72 h).

For the origin of these results see patent publication US10246463B2, “Hypoxia-inducible factor 1 (HIF-1) inhibitors” (The United States of America, as represented by the …, priority 2015, dated 2019).
